Measured values taken from patent publication US6734139B1, “N-aryl-uracile-based herbicides” (priority 1999, dated 2004).
“And” between values parts separate entries of the source, which are not always exact repeats. Identical values can stand only once.

Key:
Type in all cases: in vivo
[1] = test system: Amaranthus; experiment: Post-emergence test (herbicidal action, Colby): Amaranthus; conditions: 86 g of a.i./ha
[2] = test system: Galium; experiment: Post-emergence test (herbicidal action, Colby): Galium; conditions: 86 g of a.i./ha
[3] = test system: weeds; experiment: Pre-emergence test (herbicidal action against weeds, Colby)
Excerpt: The expected action for a given combination of two herbicides can be calculated as follows (cf. COLBY, S. R.: “Calculating synergistic and antagonistic responses of herbicide combinations”, Weeds 15, Pages 20-22, 1967):
If the actual damage exceeds the calculated value, the combination has a superadditive effect, that is to say a synergistic effect.
The theoretically expected activity for a given combination of three herbicides can likewise be found in the literature mentioned above.
Solvent: 2 to 3 parts by weight of acetone or N,N-dimethyl-formamide
Emulsifier: 1 part by weight of alkylaryl polyglycol ether
To produce a suitable preparation of active compound, 1 part by weight of active compound is mixed with the stated amount of solvent, the stated amount of emulsifier is added and the concentrate is diluted with water to the desired concentration. Formulated products are dissolved in water and then diluted with water to the desired concentration.
The solutions of the other mixing components (active compounds or safeners) are prepared analogously. The separately prepared solutions of the various mixing components are then combined and, if appropriate, additional substances (formulation auxiliaries, additives, etc.) are added and, if appropriate, water is added to prepare the desired dilution.
Seeds of the test plants are sown in standard soil. After 24 hours, the soil is sprayed with the preparation of active compound such that the particular amount of active compound desired in each case is applied per unit area. The concentration of active compound in the spray liquor is chosen such that the particular amount of active compound desired in each case is applied in 500 litres of water per hectare. The containers with the test plants are kept in a greenhouse at controlled temperature and controlled illumination until evaluation.
After three weeks, the degree of damage to the plants is rated in % damage in comparison to the development of the untreated control. The figures denote
0%=no effect/no damage (like untreated control)

[4] = test system: Alopecurus; experiment: Pre-emergence test (herbicidal action, Colby): Alopecurus
[5] = test system: Digitaria; experiment: Pre-emergence test (herbicidal action, Colby): Digitaria
[6] = test system: Echinochloa; experiment: Pre-emergence test (herbicidal action, Colby): Echinochloa
[7] = test system: Setaria; experiment: Pre-emergence test (herbicidal action, Colby): Setaria
[8] = test system: Abutilon; experiment: Pre-emergence test (herbicidal action, Colby): Abutilon; conditions: for pest or weed control at 30 g/ha: 30 g of a.i./ha; for pest or weed control at 30 g/ha / pest or weed control at 60 g/ha: read-out: Abutilon; for pest or weed control at 60 g/ha: 60 g of a.i./ha
[9] = test system: Matricaria; experiment: Pre-emergence test (herbicidal action, Colby): Matricaria; conditions: 125 g of a.i./ha
[10] = test system: Polygonum; experiment: Pre-emergence test (herbicidal action, Colby): Polygonum
[11] = test system: Stellaria; experiment: Pre-emergence test (herbicidal action, Colby): Stellaria
[12] = test system: Ipomoea; experiment: Pre-emergence test (herbicidal action, Colby): Ipomoea
[13] = test system: Datura; experiment: Pre-emergence test (herbicidal action, Colby): Datura
[14] = test system: Chenopodium; experiment: Pre-emergence test (herbicidal action, Colby): Chenopodium
[15] = test system: Eriochloa; experiment: Pre-emergence test (herbicidal action, Colby): Eriochloa
[16] = test system: Cassia; experiment: Pre-emergence test (herbicidal action, Colby): Cassia
[17] = test system: Bromus; experiment: Pre-emergence test (herbicidal action, Colby): Bromus
[18] = test system: Galium; experiment: Pre-emergence test (herbicidal action, Colby): Galium
[19] = test system: Lolium; experiment: Pre-emergence test (herbicidal action, Colby): Lolium

SMILES	Chenopodium (pre-emergence test) ([3]; Table 23, 30 g of a.i./ha)	Lolium (pre-emergence test) ([3]; Table 23, 30 g of a.i./ha)	Setaria (pre-emergence test) ([3]; Table 23, 30 g of a.i./ha)	Eriochloa (pre-emergence test) ([3]; Table 23, 60 g of a.i./ha)	Galium (pre-emergence test) ([3]; Table 23, 60 g of a.i./ha)	Setaria (pre-emergence test) ([3]; Table 23, 60 g of a.i./ha)	Alopecurus ([4]; 60 g of a.i./ha) [%]	Digitaria ([5]; 30 g of a.i./ha) [%]	Digitaria ([5]; 60 g of a.i./ha) [%]	Echinochloa ([6]; 60 g of a.i./ha) [%]	Setaria ([7]; 30 g of a.i./ha) [%]	Setaria ([7]; 60 g of a.i./ha)	pest or weed control at 30 g/ha [8] [%]	pest or weed control at 60 g/ha [8] [%]	Polygonum ([10]; 60 g of a.i./ha) [%]	Ipomoea ([12]; 30 g of a.i./ha) [%]	Datura ([13]; 30 g of a.i./ha) [%]	Datura ([13]; 60 g of a.i./ha) [%]	Chenopodium ([14]; 30 g of a.i./ha) [%]	Chenopodium ([14]; 60 g of a.i./ha) [%]	further results
O=C(O)COc1ccc(Cl)cc1Cl [2,4-D, 2,4-dichloro-phenoxyacetic acid]	–	–	–	–	–	–	–	–	–	–	–	–	–	–	–	–	–	–	–	–	Amaranthus [1]: 30%; Galium [2]: 0%
CC(C)N(C(=O)COc1nnc(C(F)(F)F)s1)c1ccc(F)cc1 [flufenacet, N-(4-fluoro-phenyl)-N-i-propyl-2-(5-trifluoromethyl-1,3,4-thiadiazol-2-yl-oxy)-acetamide]	30	70	70	90	40	90	70	80	80	90	70	80% and 90%	20	20	30	30	20	40	30	50	Ipomoea (pre-emergence test) ([3]; Table 23, 30 g of a.i./ha): 50; Chenopodium (pre-emergence test) ([3]; Table 23, 60 g of a.i./ha): 50; Chenopodium (pre-emergence test) ([3]; Table A21, 60 g of a.i./ha): 50; Ipomoea (pre-emergence test) ([3]; Table A21, 60 g of a.i./ha): 70; Polygonum (pre-emergence test) ([3]; Table A21, 60 g of a.i./ha): 0; Datura (pre-emergence test) ([3]; Table A21, 125 g of a.i./ha): 50; Ipomoea (pre-emergence test) ([3]; Table A21, 125 g of a.i./ha): 80; Polygonum (pre-emergence test) ([3]; Table A21, 125 g of a.i./ha): 30; pest or weed control at 125 g/ha ([8]; 125 g of a.i./ha): 20%; Matricaria [9]: 60%; Polygonum ([10]; 30 g of a.i./ha): 20%; Stellaria ([11]; 60 g of a.i./ha): 50%; Stellaria ([11]; 125 g of a.i./ha): 70%; Ipomoea ([12]; 60 g of a.i./ha): 30%; Ipomoea ([12]; 125 g of a.i./ha): 30%; Eriochloa ([15]; 30 g of a.i./ha): 80%; Cassia ([16]; 60 g of a.i./ha): 60%; Bromus ([17]; 60 g of a.i./ha): 30%; Galium ([18]; 30 g of a.i./ha): 30%; Lolium ([19]; 60 g of a.i./ha): 80%
CC(C)c1nn(C(=O)NC(C)(C)C)c(=O)n1N [amicarbazone, 4-amino-N-(1,1-dimethyl-ethyl)-4,5-dihydro-3-(1-methyl-ethyl)-5-oxo-1H-1,2,4-triazole-1-carboxamide]	–	–	–	–	–	–	20	20	60	0	20	20% and 30%	20	99	80	50	0	20	50	–	Cassia (pre-emergence test) ([3]; Table A22, 60 g of a.i./ha): 80; Datura (pre-emergence test) ([3]; Table A22, 125 g of a.i./ha): 50; Polygonum (pre-emergence test) ([3]; Table A22, 125 g of a.i./ha): 90; Eriochloa ([15]; 30 g of a.i./ha): 30%; Eriochloa ([15]; 60 g of a.i./ha): 70%; Cassia ([16]; 30 g of a.i./ha): 70%; Lolium ([19]; 30 g of a.i./ha): 0%
CSc1nnc(C(C)(C)C)c(=O)n1N [metribuzin, 4-amino-6-tert-butyl-3-methylthio-1,2,4-triazin-5(4H)-one]	30	0	20	0	20	80	–	30	80	0	–	–	80	90	40	0	20	30	–	50	Ipomoea (pre-emergence test) ([3]; Table 23, 60 g of a.i./ha): 0; Cassia (pre-emergence test) ([3]; Table A26, 60 g of a.i./ha): 80; Echinochloa (pre-emergence test) ([3]; Table A26, 60 g of a.i./ha): 30; Matricaria (pre-emergence test) ([3]; Table A26, 60 g of a.i./ha): 60; Avena (pre-emergence test) ([3]; Table A26, 125 g of a.i./ha): 40; Digitaria (pre-emergence test) ([3]; Table A26, 125 g of a.i./ha): 90; Echinochloa (pre-emergence test) ([3]; Table A26, 125 g of a.i./ha): 80; Lolium (pre-emergence test) ([3]; Table A26, 125 g of a.i./ha): 70; Matricaria (pre-emergence test) ([3]; Table A26, 125 g of a.i./ha): 70; Setaria (pre-emergence test) ([3]; Table A26, 125 g of a.i./ha): 80; Alopecurus ([4]; 30 g of a.i./ha): 0%; Echinochloa ([6]; 125 g of a.i./ha): 80%; Bromus ([17]; 30 g of a.i./ha): 0%; Galium ([18]; 60 g of a.i./ha): 0%
